Results: patent publication US20150073005A1, “COMPOSITION FOR HAIR GROWTH” (ASAHI GLASS COMPANY, LIMITED, priority 2012, published 2015)

Tested on: C3H/HeNSIc mouse
Conditions: in vivo
Text: Hairs on the back of each C3H/HeNSIc mouse (male, 8 weeks old) were carefully dehaired in an area of 2 cm×3 cm to form a medicine application surface. The next day (the day before initiation of the test), mice which were confirmed to have no damage on the application surface of the back, to have a pink color over the entire application surface and to be in the telogen stage of hair growth, were bred in a stainless steel cage (185 W×260 D×175 H (mm)) in three groups each group consisting of 10 mice.
Every day, the application surface was inspected before the application, and the day on which hair growth was observed, was taken as the hair growth day.

CC(C)OC(=O)CCC/C=C\C[C@@H]1[C@@H](/C=C/C(F)(F)COc2ccccc2)[C@H](O)C[C@@H]1O [0.0015% Tafluprost, Tafluprost]
Blackening of the skin at the application surface as visually observed: ^aHair growth without blackening of the skin as visually observed.
